In assay [1] the target is T1, AHR (Homo sapiens, UniProt P35869).
T1 sequence (P35869 11-848): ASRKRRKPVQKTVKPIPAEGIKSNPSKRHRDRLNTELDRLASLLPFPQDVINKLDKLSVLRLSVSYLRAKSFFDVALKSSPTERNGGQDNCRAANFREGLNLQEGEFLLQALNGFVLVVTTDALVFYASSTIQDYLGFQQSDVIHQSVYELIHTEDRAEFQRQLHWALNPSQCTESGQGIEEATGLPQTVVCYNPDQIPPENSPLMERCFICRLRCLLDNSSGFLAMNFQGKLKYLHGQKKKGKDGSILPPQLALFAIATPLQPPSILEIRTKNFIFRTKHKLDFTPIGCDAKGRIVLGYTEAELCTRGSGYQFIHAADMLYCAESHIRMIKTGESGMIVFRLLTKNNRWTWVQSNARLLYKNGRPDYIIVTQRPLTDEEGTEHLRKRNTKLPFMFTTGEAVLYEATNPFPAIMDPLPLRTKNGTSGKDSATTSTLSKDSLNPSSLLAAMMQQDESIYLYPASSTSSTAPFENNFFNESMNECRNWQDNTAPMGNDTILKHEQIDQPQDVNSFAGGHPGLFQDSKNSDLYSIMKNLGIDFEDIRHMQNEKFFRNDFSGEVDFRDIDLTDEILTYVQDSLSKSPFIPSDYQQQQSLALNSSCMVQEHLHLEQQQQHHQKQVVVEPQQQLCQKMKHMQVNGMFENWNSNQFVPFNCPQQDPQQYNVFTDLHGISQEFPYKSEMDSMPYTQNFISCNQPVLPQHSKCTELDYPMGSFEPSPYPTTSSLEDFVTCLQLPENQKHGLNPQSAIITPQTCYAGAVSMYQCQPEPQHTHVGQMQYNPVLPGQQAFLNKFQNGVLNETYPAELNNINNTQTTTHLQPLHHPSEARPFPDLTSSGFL
The assay can be described thus: In vitro assay 1: antagonism in human cell line (transactivation assay, kynurenic acid prestimulated). Particulars: Assay 1: AHR-luc Hum Antagonism IC50 [M], 150 μM kynurenic acid, 20 hours, firefly luciferase.

The target in assay [2] is T1, AHR. The experiment in a line: In vitro assay 2: agonism in human cell line (transactivation assay).
Where [3] appears, read: read-out: Assay 2: AHR-luc Hum Agonism IC50, no kynurenic acid, 20 hours, firefly luciferase.
The mark [4] stands for this setting: Assay 2: AHR-luc Hum Agonism IC50 [M], no kynurenic acid, 20 hours, firefly luciferase.

The source of these data is patent publication US11040035B2, “3-oxo-2,6-diphenyl-2,3-dihydropyridazine-4-carboxamides” (BAYER PHARMA AKTIENGESELLSCHAFT, priority 2016, dated 2021).

For the compound `O=C(N[C@@H]1CCCC(F)(F)[C@H]1O)c1cc(-c2ccc(Cl)cc2)nn(-c2cccc(F)c2)c1=O` (single isomer, unassigned) [Example 276, 6-(4-Chlorophenyl)-N-[(trans)-3,3-difluoro-2-hydroxycyclohexyl]-2-(3-fluorophenyl)-3-oxo-2,3-dihydropyridazine-4-carboxamide], the IC50 was 1.45e-07 M against AHR [1] and more than 2e-05 M on AHR [2] (setting [3]).
For the compound `CC(C)(O)C(NC(=O)c1cc(-c2ccc(Cl)cc2)nn(-c2cccc(F)c2)c1=O)C(F)(F)F` (single isomer, unassigned) [Example 278, 6-(4-Chlorophenyl)-2-(3-fluorophenyl)-3-oxo-N-(1,1,1-trifluoro-3-hydroxy-3-methylbutan-2-yl)-2,3-dihydropyridazine-4-carboxamide], the IC50 against AHR [1] was 2.05e-07 M; on AHR [2] (setting [4]) it was more than 2e-05 M.
As for `O=C(NCC(O)C(F)(F)F)c1cc(-c2ccc(Cl)c(F)c2)nn(-c2cccc(F)c2)c1=O` (single isomer, unassigned) [Example 283, 6-(4-chloro-3-fluorophenyl)-2-(3-fluorophenyl)-3-oxo-N-(3,3,3-trifluoro-2-hydroxypropyl)-2,3-dihydropyridazine-4-carboxamide], the IC50 is 1.91e-07 M on AHR [1] and more than 2e-05 M against AHR [2] (setting [4]).
Consider `O=C(NCC(O)C(F)(F)F)c1cc(-c2ccc(Cl)c(F)c2)nn(-c2cccc(F)c2)c1=O` (single isomer, unassigned) [Example 284, 6-(4-chloro-3-fluorophenyl)-2-(3-fluorophenyl)-3-oxo-N-(3,3,3-trifluoro-2-hydroxypropyl)-2,3-dihydropyridazine-4-carboxamide], for which the results for the IC50 on AHR [1] and at AHR [2] (setting [3]) were 8.39e-07 M and more than 2e-05 M, respectively.
On to `O=C(NC(CO)C1CCOC1)c1cc(-c2ccc(Cl)c(F)c2)nn(-c2cccc(F)c2)c1=O` (single isomer, unassigned) [Example 292, 6-(4-Chloro-3-fluorophenyl)-2-(3-fluorophenyl)-N-[2-hydroxy-1-(tetrahydrofuran-3-yl)ethyl]-3-oxo-2,3-dihydropyridazine-4-carboxamide], for which the IC50 at AHR [1] is 3.09e-07 M; on AHR [2] (setting [4]), more than 2e-05 M.
In the case of `O=C(NC(CO)C1CCOC1)c1cc(-c2ccc(Cl)c(F)c2)nn(-c2cccc(F)c2)c1=O` (single isomer, unassigned) [Example 294, 6-(4-Chloro-3-fluorophenyl)-2-(3-fluorophenyl)-N-[2-hydroxy-1-(tetrahydrofuran-3-yl)ethyl]-3-oxo-2,3-dihydropyridazine-4-carboxamide], the figures for the IC50 at AHR [1] and on AHR [2] (setting [3]) were 6.17e-07 M and more than 2e-05 M, respectively.
As to `O=C(NC(CO)C1CCOC1)c1cc(-c2ccc(Cl)c(F)c2)nn(-c2cccc(F)c2)c1=O` (single isomer, unassigned) [Example 295, 6-(4-Chloro-3-fluorophenyl)-2-(3-fluorophenyl)-N-[2-hydroxy-1-(tetrahydrofuran-3-yl)ethyl]-3-oxo-2,3-dihydropyridazine-4-carboxamide], the results for the IC50 against AHR [1] and on AHR [2] (setting [3]) were 8.3e-07 M and more than 2e-05 M, respectively.
Consider `O=C(NC[C@@H](O)C(F)(F)F)c1cc(-c2ccc(Cl)c(Cl)c2)nn(-c2cccc(F)c2)c1=O` (single isomer, unassigned) [Example 299, 6-(3,4-Dichlorophenyl)-2-(3-fluorophenyl)-3-oxo-N-(3,3,3-trifluoro-2-hydroxypropyl)-2,3-dihydropyridazine-4-carboxamide], for which the values for the IC50 at AHR [1] and against AHR [2] (setting [4]) were 7.42e-07 M and more than 2e-05 M, respectively.
Take `O=C(NCC(O)C(F)(F)F)c1cc(-c2ccc(Cl)c(Cl)c2)nn(-c2cccc(F)c2)c1=O` (single isomer, unassigned) [Example 308, 6-(3,4-Dichlorophenyl)-2-(3-fluorophenyl)-3-oxo-N-(3,3,3-trifluoro-2-hydroxypropyl)-2,3-dihydropyridazine-4-carboxamide]: the IC50 is 1.77e-07 M against AHR [1] and more than 2e-05 M against AHR [2] (setting [4]).
Consider `O=C(NC(CO)C1CCCO1)c1cc(-c2ccc(Cl)cc2)nn(-c2cccc(F)c2)c1=O` (single isomer, unassigned) [Example 316, 1,4-anhydro-5-({[6-(4-chlorophenyl)-2-(3-fluorophenyl)-3-oxo-2,3-dihydropyridazin-4-yl]carbonyl}amino)-2,3,5-trideoxyhexitol], for which the IC50 is 3.7e-07 M on AHR [1] and more than 2e-05 M at AHR [2] (setting [4]).
Regarding `C[C@@H](O)CCNC(=O)c1cc(-c2ccc(C(F)(F)F)cc2)nn(-c2cccc(F)c2)c1=O` (single isomer, unassigned) [Example 330], the IC50 against AHR [1] is 1.21e-07 M; at AHR [2] (setting [4]), more than 2e-05 M.
For the compound `O=C(N[C@H]1CC[C@@H]1O)c1cc(-c2ccc(Cl)cc2)nn(-c2cccc(F)c2)c1=O` (single isomer, unassigned) [Example 335, (−)-6-(4-chlorophenyl)-2-(3-fluorophenyl)-N-(trans-2-hydroxycyclobutyl)-3-oxo-2,3-dihydropyridazine-4-carboxamide], the IC50 on AHR [1] was 4.05e-07 M; at AHR [2] (setting [4]), more than 2e-05 M.
Taken in the same sequence, the figures for `O=C(NC(CO)C1CCCO1)c1cc(-c2ccc(C(F)(F)F)cc2)nn(-c2cccc(F)c2)c1=O` (single isomer, unassigned) [Example 339, 1,4-anhydro-2,3,5-trideoxy-5-[({2-(3-fluorophenyl)-3-oxo-6-[4-(trifluoromethyl)phenyl]-2,3-dihydropyridazin-4-yl}carbonyl)amino]hexitol] were 4.59e-08 M and more than 2e-05 M.
Take `CC(NC(=O)c1cc(-c2ccc(Cl)cc2)nn(-c2cccc(F)c2)c1=O)C(O)CO` (single isomer, unassigned) [Example 346, 6-(4-chlorophenyl)-N-(3,4-dihydroxybutan-2-yl)-2-(3-fluorophenyl)-3-oxo-2,3-dihydropyridazine-4-carboxamide]: the IC50 was 1.98e-07 M on AHR [1] and more than 2e-05 M at AHR [2] (setting [4]).
Regarding `CC(NC(=O)c1cc(-c2ccc(Cl)cc2)nn(-c2cccc(F)c2)c1=O)C(O)CO` (single isomer, unassigned) [Example 347, 6-(4-chlorophenyl)-N-(3,4-dihydroxybutan-2-yl)-2-(3-fluorophenyl)-3-oxo-2,3-dihydropyridazine-4-carboxamide], the values for the 50% inhibitory concentration (IC50) against AHR [1] and at AHR [2] (setting [3]) were 1.69e-07 M and more than 2e-05 M, respectively.
Turning to `CC(O)C(NC(=O)c1cc(-c2ccc(C(F)(F)F)cc2)nn(-c2cccc(F)c2)c1=O)C(F)(F)F` (single isomer, unassigned) [Example 349, 2-(3-fluorophenyl)-3-oxo-N-(1,1,1-trifluoro-3-hydroxybutan-2-yl)-6-[4-(trifluoromethyl)phenyl]-2,3-dihydropyridazine-4-carboxamide], the figures for the IC50 at AHR [1] and on AHR [2] (setting [4]) were 3.54e-09 M and more than 2e-05 M, respectively.
For `CC(O)C(NC(=O)c1cc(-c2ccc(C(F)(F)F)cc2)nn(-c2cccc(F)c2)c1=O)C(F)(F)F` (single isomer, unassigned) [Example 350, 2-(3-fluorophenyl)-3-oxo-N-(1,1,1-trifluoro-3-hydroxybutan-2-yl)-6-[4-(trifluoromethyl)phenyl]-2,3-dihydropyridazine-4-carboxamide], the IC50 is 2.08e-07 M on AHR [1] and more than 2e-05 M at AHR [2] (setting [3]).
On to `O=C(N[C@@H]1CC[C@@H]1O)c1cc(-c2ccc(Cl)cc2)nn(-c2cccc(F)c2)c1=O` (single isomer, unassigned) [Example 358], for which the IC50 on AHR [1] was 1.15e-07 M; against AHR [2] (setting [4]), more than 2e-05 M.
For the compound `CC(NC(=O)c1cc(-c2ccc(Cl)cc2)nn(-c2cccc(F)c2)c1=O)C(O)CO` (single isomer, unassigned) [Example 359, 6-(4-chlorophenyl)-N-(3,4-dihydroxybutan-2-yl)-2-(3-fluorophenyl)-3-oxo-2,3-dihydropyridazine-4-carboxamide], the IC50 at AHR [1] was 2.67e-08 M; at AHR [2] (setting [3]), more than 2e-05 M.
With `CC(NC(=O)c1cc(-c2ccc(Cl)cc2)nn(-c2cccc(F)c2)c1=O)C(O)CO` (single isomer, unassigned) [Example 360, 6-(4-chlorophenyl)-N-(3,4-dihydroxybutan-2-yl)-2-(3-fluorophenyl)-3-oxo-2,3-dihydropyridazine-4-carboxamide], the IC50 was 1.39e-08 M on AHR [1] and more than 2e-05 M at AHR [2] (setting [3]).
`N#Cc1cccc(-n2nc(-c3ccc(Cl)cc3)cc(C(=O)NCC(O)C(F)(F)F)c2=O)c1` (single isomer, unassigned) [Example 363, 6-(4-chlorophenyl)-2-(3-cyanophenyl)-3-oxo-N-(3,3,3-trifluoro-2-hydroxypropyl)-2,3-dihydropyridazine-4-carboxamide]: the figures for the IC50 against AHR [1] and at AHR [2] (setting [4]) were 2.22e-07 M and more than 2e-05 M, respectively.

By IC50 is commonly meant the concentration that gives 50% inhibition.
